Experimental data taken from patent publication US8889068B2, “Method for controlling microbial contamination, mineral suspensions obtained and uses thereof” (Omya International AG, priority 2005, dated 2014).

System: bacteria/yeasts cocktail indicated in table 28
Test: Disinfection test on simulated wagon washing water with Ca(OH)2
Type: cell-based
Method: In order to simulate wagon washing water, a buffered kitchen salt solution was used, comprising 3% by weight of a suspension of calcium carbonate, taken from example 1.
The Ca(OH)2 was dissolved in a buffered solution of sterile phosphate at 0.85% by weight (PBS) and was mixed after 24 hours' storage at 30° C. with the bacteria/yeasts cocktail indicated in table 28.
The samples were incubated once more for 24 hours at 30° C. and then removed from the plates.
The germs which had grown were examined under an optical microscope.
A cocktail of bacteria (in PBS), firstly, and a bacteria/yeasts cocktail in (PBS), secondly, were mixed with Ca(OH)2, stored, and then removed from their moulds.
Tables 29 and 30 indicate the OH^− ion concentration (mole/l) and the yeast germ concentration (number/ml) measured in the samples, after 24-hours' incubation, for different initial concentrations of Ca(OH)2.
Samples 9 and 10 of initial Ca(OH)2 concentration equal to 1000 ppm were then removed from their mould at 30° C. on to a bacterial medium called a PCA (Plate Count Agar).
After 48 hours' incubation, the samples are once again removed from their moulds on to the same medium of type PCA.
For a part of sample 9, named 9-2, the OH^− ion concentration was reduced to a value of 5×10^−7 mole/l by the addition of gaseous CO2. […]

Q: For [Ca+2].[OH-].[OH-] [Ca(OH)2], which microbial germs (curative mode, initial Ca(OH)2 1000 ppm, after 24 hours) is on record?
A: less than 10 number/ml

Q: And the microbial germs concentration (protective mode, initial Ca(OH)2 200 ppm, after 24 hours' incubation at 30° C.)?
A: 1000 number/ml
